{
  "source": "patent US20230017786A1",
  "about": "“DEXTR[…] A DISEASE-MODIFYING TREATMENT FOR NEUROPSYCHIATRIC DISORDERS AND DISEASES” (priority 2020, published 2023)",
  "key": {"[1]": {"assay": "Phase 1 SAD and MAD studies, pharmacokinetics"}, "[2]": {"target": "T1, human NMDA receptor GluN1-GluN2B (Homo sapiens, UniProt Q05586+Q13224)", "T1 construct": "expressed in transfected cells; host or cells: CHO", "T1 sequence (Q13224 27-1484, other chains not shown)": "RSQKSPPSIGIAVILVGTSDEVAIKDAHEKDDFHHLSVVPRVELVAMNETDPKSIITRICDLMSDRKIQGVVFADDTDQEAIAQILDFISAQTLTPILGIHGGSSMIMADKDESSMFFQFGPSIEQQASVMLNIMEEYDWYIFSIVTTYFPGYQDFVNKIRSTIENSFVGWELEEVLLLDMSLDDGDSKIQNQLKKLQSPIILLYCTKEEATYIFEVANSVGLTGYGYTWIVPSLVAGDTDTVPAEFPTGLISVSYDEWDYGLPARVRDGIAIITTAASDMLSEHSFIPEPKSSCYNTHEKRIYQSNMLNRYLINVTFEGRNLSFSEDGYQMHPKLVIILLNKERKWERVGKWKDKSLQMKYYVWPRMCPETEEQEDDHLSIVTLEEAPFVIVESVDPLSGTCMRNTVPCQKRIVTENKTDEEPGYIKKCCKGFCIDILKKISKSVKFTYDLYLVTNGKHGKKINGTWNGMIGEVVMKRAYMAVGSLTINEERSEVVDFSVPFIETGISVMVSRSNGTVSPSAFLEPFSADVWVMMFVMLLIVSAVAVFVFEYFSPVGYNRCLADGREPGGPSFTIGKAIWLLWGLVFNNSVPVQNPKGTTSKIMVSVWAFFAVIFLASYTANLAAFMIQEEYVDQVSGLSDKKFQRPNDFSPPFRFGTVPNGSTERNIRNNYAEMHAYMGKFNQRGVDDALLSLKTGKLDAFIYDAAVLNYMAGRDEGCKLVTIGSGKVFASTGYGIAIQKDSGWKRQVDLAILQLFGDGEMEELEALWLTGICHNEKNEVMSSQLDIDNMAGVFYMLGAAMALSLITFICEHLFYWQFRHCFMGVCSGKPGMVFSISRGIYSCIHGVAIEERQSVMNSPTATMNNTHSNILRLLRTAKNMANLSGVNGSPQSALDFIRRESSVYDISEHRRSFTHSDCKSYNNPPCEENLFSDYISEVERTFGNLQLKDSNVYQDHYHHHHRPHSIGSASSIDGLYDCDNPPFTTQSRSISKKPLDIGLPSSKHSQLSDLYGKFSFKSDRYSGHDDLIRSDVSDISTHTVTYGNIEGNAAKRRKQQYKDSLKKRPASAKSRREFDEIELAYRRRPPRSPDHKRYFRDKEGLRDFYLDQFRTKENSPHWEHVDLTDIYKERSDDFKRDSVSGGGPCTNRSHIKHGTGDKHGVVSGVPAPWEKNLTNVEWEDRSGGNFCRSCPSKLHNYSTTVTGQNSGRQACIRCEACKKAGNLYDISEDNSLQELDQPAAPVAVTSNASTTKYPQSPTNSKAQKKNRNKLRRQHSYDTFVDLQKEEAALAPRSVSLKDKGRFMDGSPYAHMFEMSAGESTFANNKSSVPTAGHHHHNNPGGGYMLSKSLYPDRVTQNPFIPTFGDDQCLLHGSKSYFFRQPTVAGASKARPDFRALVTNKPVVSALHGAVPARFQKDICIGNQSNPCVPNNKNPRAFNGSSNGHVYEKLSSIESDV", "assay": "FLIPR calcium assay, quinolinic acid, gentamicin, dextromethadone (Example 5 Part II), GluN1-GluN2B-CHO", "format": "cell-based", "conditions": "10 μM glycine; for calcium response (mean±SEM): GluN2B, n=42"}, "patients with MDD": {"test_system": "patients with MDD", "assay": "Phase 2 sub-analysis, MADRS and SDQ composite indexes and single functional items", "format": "in vivo, human", "text": "The present inventors selected items from the MADRS and SDQ scales and created Composite Indexes of cognitive and motivational functions: Cognitive composite index: [MADRS 6 (concentration difficulties), SDQ 16 (wakefulness), SDQ 22 (slowed down feeling, SDQ 35 (ability to focus), SDQ 36 (ability to remember), SDQ 37 (ability to find words), SDQ 38 (sharpness), SDQ 39 (ability to make decisions), SDQ 42 (ability to work)]; Motivation-energy composite index: [MADRS 7 (lassitude), SDQ 7 (motivation), SDQ 20 (energy)]; Mood composite index: [MADRS 1 (reported sadness), SDQ 1, 2, 3 (mood)]; Sleep composite index: [MADRS 4 (reduced sleep), SDQ 13 (ability to fall asleep), SDQ 14 (ability to stay asleep in the middle of the night), SDQ 15 (ability to stay asleep around the time before waking up)]; The present inventors also separately analyzed two additional single functional items part of the SDQ. 1) Social function, single question (SDQ 41, social functioning); 2) sexual function, single question (SDQ 40, sexual functioning).\nAnalysis of Change from Baseline at different times after the onset of treatment: The likelihood-based method applied is the Mixed-Effect Model Repeated Measures (MMRM) model with fixed-effect terms for treatment, visit (Day 2, Day 4, Day 7, Day 14) and the interaction between treatment and visit. The LS means and the LS means difference (the difference between REL-1017 and Placebo in the LS means) are provided along with the p-value for testing the hypothesis of no difference and the Cohen's effect size (calculated based on the LS mean differences and the pooled standard deviations). The 25 mg and 50 mg dosages are considered separately and combined: 25 mg+50 mg, Combined Treatment Group (CTG)."}, "[3]": {"target": "human GluN1-GluN2C NMDA receptor (Homo sapiens, UniProt Q05586+Q14957)", "sequence (Q14957 20-1233, other chains not shown)": "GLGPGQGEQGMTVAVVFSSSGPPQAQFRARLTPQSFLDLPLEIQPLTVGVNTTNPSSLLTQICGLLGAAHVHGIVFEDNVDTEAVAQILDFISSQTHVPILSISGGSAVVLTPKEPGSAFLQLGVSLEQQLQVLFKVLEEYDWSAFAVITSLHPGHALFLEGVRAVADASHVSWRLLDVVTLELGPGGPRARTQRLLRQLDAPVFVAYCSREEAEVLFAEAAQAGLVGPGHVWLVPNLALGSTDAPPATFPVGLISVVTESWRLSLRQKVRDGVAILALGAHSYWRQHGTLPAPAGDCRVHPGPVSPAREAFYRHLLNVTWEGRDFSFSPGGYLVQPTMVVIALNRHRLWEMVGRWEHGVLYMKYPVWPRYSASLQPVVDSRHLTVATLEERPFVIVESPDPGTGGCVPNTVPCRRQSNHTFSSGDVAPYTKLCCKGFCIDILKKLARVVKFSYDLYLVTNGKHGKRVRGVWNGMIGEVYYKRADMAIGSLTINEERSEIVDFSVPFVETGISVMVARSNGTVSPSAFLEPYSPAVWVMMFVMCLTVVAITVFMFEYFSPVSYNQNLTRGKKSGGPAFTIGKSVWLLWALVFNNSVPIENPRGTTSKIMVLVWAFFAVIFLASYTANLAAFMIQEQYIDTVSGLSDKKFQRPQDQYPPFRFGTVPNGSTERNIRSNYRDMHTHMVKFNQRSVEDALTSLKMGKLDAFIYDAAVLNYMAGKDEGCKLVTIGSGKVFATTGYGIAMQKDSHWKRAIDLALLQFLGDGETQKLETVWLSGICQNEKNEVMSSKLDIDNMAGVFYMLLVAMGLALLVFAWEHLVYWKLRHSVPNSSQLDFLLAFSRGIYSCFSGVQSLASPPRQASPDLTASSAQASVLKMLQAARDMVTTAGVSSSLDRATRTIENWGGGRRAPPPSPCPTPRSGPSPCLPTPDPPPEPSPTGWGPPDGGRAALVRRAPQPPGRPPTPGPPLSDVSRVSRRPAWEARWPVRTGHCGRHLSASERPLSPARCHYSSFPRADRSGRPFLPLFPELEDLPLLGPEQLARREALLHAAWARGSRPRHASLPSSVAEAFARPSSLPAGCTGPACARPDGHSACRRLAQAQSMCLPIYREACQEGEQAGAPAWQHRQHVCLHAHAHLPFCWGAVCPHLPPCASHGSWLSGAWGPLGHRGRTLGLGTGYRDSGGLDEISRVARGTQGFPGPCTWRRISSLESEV", "assay": "Manual patch clamp trapping assay, hGluN1/hGluN2C-CHO cells", "conditions": "test item 10 μM"}, "[4]": {"target": "T2, human NMDA receptor GluN1-GluN2D (Homo sapiens, UniProt O15399+Q05586)", "T2 construct": "expressed in transfected cells; host or cells: CHO", "T2 sequence (O15399 28-1336, other chains not shown)": "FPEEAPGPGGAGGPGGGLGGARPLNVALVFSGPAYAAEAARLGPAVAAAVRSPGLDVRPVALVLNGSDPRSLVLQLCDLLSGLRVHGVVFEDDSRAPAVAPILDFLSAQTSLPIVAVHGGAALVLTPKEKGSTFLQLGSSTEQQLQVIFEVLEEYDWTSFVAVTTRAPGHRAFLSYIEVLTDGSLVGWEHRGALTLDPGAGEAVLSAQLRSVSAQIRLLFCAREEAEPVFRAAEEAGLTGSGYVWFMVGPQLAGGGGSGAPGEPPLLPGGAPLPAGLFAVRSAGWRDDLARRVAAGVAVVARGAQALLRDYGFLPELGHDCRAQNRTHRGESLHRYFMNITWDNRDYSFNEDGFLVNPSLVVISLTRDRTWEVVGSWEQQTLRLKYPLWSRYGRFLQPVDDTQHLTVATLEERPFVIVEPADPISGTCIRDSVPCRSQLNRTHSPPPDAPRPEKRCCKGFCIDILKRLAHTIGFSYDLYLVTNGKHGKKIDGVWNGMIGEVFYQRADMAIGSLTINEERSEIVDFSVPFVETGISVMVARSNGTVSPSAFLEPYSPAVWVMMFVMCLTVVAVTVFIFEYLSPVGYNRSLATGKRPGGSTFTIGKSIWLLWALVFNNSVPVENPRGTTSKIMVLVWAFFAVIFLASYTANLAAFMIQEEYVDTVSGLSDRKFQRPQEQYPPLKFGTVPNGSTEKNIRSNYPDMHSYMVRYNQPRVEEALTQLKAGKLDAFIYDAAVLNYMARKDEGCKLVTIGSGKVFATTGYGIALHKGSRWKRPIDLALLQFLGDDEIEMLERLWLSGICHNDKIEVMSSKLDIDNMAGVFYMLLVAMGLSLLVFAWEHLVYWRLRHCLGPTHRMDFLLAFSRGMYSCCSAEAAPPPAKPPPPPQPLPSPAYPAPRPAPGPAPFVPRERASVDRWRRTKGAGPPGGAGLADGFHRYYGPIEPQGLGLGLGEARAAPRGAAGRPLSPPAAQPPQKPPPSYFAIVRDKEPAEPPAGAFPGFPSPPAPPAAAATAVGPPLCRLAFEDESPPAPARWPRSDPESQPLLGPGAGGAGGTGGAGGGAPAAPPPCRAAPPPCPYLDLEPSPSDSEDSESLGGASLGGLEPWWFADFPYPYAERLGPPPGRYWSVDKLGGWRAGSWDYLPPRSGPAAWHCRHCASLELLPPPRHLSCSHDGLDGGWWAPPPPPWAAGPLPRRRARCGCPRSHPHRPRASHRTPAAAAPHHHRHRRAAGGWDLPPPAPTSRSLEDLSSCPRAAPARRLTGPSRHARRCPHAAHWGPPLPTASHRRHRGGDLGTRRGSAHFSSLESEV", "assay": "FLIPR calcium assay, test item effect on L-glutamate CRC, GluN1-GluN2D-CHO", "format": "cell-based"}, "[5]": {"test_system": "Western diet fed Sprague-Dawley rats, liver", "assay": "Western diet treated rats, hepatic inflammation, steatosis and lipid metabolism genes", "conditions": "10 mg/kg, gastric gavage, 15 days"}, "[6]": {"conditions": "25 mg, day not given (first set)"}, "[7]": {"conditions": "50 mg, day not given (first set)"}, "[8]": {"conditions": "CTG 25 mg+50 mg, day not given (first set)"}},
  "note": "“And” between values parts separate entries of the source, which are not always exact repeats. Identical values can stand only once.",
  "data": [
    {"smiles": "CCC(=O)C(C[C@H](C)N(C)C)(c1ccccc1)c1ccccc1", "note": "[Dextromethadone, dextromethadone]", "values": [
      {"measurement": "conversion of dextromethadone to levomethadone in vivo", "setting": "[1]; SAD and MAD subjects", "value": "No detectable conversion"},
      {"measurement": "pharmacokinetic linearity", "setting": "[1]; SAD and MAD, racially diversified subjects", "value": "linear pharmacokinetics with dose proportionality"},
      {"measurement": "calcium response (mean±SEM)", "setting": "[2]; 0.04 μM L-Glu + 10 μM DXT", "value": "0.2 ± 0.4"},
      {"measurement": "calcium response (mean±SEM)", "setting": "[2]; 0.04 μM L-Glu + 1000 μM QA + 10 μM DXT", "value": "13 ± 1.0"},
      {"measurement": "calcium response (mean±SEM)", "setting": "[2]; 0.2 μM L-Glu + 10 μM DXT", "value": "8.0 ± 0.5"},
      {"measurement": "calcium response (mean±SEM)", "setting": "[2]; 0.2 μM L-Glu + 100 μM QA + 10 μM DXT", "value": "9.9 ± 0.8"},
      {"measurement": "calcium response (mean±SEM)", "setting": "[2]; 0.2 μM L-Glu + 1000 μM QA + 10 μM DXT", "value": "13 ± 1.0"},
      {"measurement": "% effect on calcium entry, 100 QA + 10 DXT", "setting": "[2]; 100 μM QA + 10 μM DXT", "value": "−1.0 ± 0.8", "unit": "%"},
      {"measurement": "calcium response (mean±SEM)", "setting": "[2]; 1000 μM QA + 10 μM DXT", "value": "12 ± 0.7"},
      {"measurement": "% effect on calcium entry, 1000 QA + 10 DXT", "setting": "[2]; 1000 μM QA + 10 μM DXT", "value": "12 ± 0.7", "unit": "%"},
      {"measurement": "calcium response (mean±SEM)", "setting": "[2]; 1000 μM QA + 10 μg/ml GENT + 10 μM DXT", "value": "21 ± 0.9"},
      {"measurement": "calcium response (mean±SEM)", "setting": "[2]; Table 41: 0.04 μM L-Glu + 10 μM DXT", "value": "0.2 ± 0.4"},
      {"measurement": "calcium response (mean±SEM)", "setting": "[2]; Table 43: 0.2 μM L-Glu + 10 μM DXT", "value": "8.0 ± 0.5"},
      {"measurement": "Social function (SDQ 41), LS mean difference vs placebo", "setting": "patients with MDD; 25 mg, Day 7", "value": "−1.07"},
      {"measurement": "Social function (SDQ 41), effect size", "setting": "patients with MDD; 25 mg, Day 7", "value": 0.65},
      {"measurement": "Sexual function (SDQ 40), LS mean difference vs placebo", "setting": "patients with MDD; 25 mg, Day 14", "value": "−1.32"},
      {"measurement": "Sexual function (SDQ 40), effect size", "setting": "patients with MDD; 25 mg, Day 14", "value": 0.93},
      {"measurement": "Social function (SDQ 41), LS mean difference vs placebo", "setting": "patients with MDD; 25 mg, Day 14", "value": "−1,246"},
      {"measurement": "Social function (SDQ 41), effect size", "setting": "patients with MDD; 25 mg, Day 14", "value": 0.99},
      {"measurement": "Sexual function (SDQ 40), LS mean difference vs placebo", "setting": "patients with MDD; [6]", "value": "−0.66"},
      {"measurement": "Sexual function (SDQ 40), effect size", "setting": "patients with MDD; [6]", "value": 0.48},
      {"measurement": "Social function (SDQ 41), LS mean difference vs placebo", "setting": "patients with MDD; 50 mg, Day 7", "value": "−1"},
      {"measurement": "Social function (SDQ 41), effect size", "setting": "patients with MDD; 50 mg, Day 7", "value": 0.57},
      {"measurement": "Sexual function (SDQ 40), LS mean difference vs placebo", "setting": "patients with MDD; 50 mg, Day 14", "value": "−0.4"},
      {"measurement": "Sexual function (SDQ 40), effect size", "setting": "patients with MDD; 50 mg, Day 14", "value": 0.29},
      {"measurement": "Social function (SDQ 41), effect size", "setting": "patients with MDD; 50 mg, Day 14", "value": 0.98},
      {"measurement": "Sexual function (SDQ 40), LS mean difference vs placebo", "setting": "patients with MDD; [7]", "value": "−0.28"},
      {"measurement": "Sexual function (SDQ 40), effect size", "setting": "patients with MDD; [7]", "value": 0.19},
      {"measurement": "Social function (SDQ 41), effect size", "setting": "patients with MDD; CTG 25 mg+50 mg, Day 7", "value": 0.61},
      {"measurement": "Sexual function (SDQ 40), LS mean difference vs placebo", "setting": "patients with MDD; CTG 25 mg+50 mg, Day 14", "value": "−0.86"},
      {"measurement": "Sexual function (SDQ 40), effect size", "setting": "patients with MDD; CTG 25 mg+50 mg, Day 14", "value": 0.59},
      {"measurement": "Social function (SDQ 41), LS mean difference vs placebo", "setting": "patients with MDD; CTG 25 mg+50 mg, Day 14", "value": "−1.19"},
      {"measurement": "Social function (SDQ 41), effect size", "setting": "patients with MDD; CTG 25 mg+50 mg, Day 14", "value": 0.99},
      {"measurement": "Sexual function (SDQ 40), LS mean difference vs placebo", "setting": "patients with MDD; [8]", "value": "−0.46"},
      {"measurement": "Sexual function (SDQ 40), effect size", "setting": "patients with MDD; [8]", "value": 0.32},
      {"measurement": "Block trapped (BT), trapping", "setting": "[3]", "value": "85.9% and 85.9%±1.9%"},
      {"measurement": "Block (B) of 10/10 μM L-glutamate/glycine-evoked currents", "setting": "[3]; listed as dextromethadone", "value": "83.8%±1.2% and 83.8%"},
      {"measurement": "Block trapped (BT), trapping", "setting": "[3]; listed as dextromethadone", "value": "85.9% and 85.9%±1.9%"},
      {"measurement": "Residual block (BR)", "setting": "[3]; listed as dextromethadone", "value": "71.8%±1.1% and 71.8%"},
      {"measurement": "α, estimated cooperativity term", "setting": "[4]; operational analysis for allosteric modulators", "value": 0.22},
      {"measurement": "L-glutamate CRC HillSlope", "setting": "[4]; with test item 49 nM", "value": 1.3},
      {"measurement": "L-glutamate CRC LogEC50", "setting": "[4]; with test item 49 nM", "value": "−7.5"},
      {"measurement": "L-glutamate CRC HillSlope", "setting": "[4]; with test item 195 nM", "value": 1.3},
      {"measurement": "L-glutamate CRC LogEC50", "setting": "[4]; with test item 195 nM", "value": "−7.5"},
      {"measurement": "L-glutamate CRC HillSlope", "setting": "[4]; with test item 781 nM", "value": 1.7},
      {"measurement": "L-glutamate CRC LogEC50", "setting": "[4]; with test item 781 nM", "value": "−7.5"},
      {"measurement": "L-glutamate CRC HillSlope", "setting": "[4]; with test item 3.1 μM", "value": 1.5},
      {"measurement": "L-glutamate CRC LogEC50", "setting": "[4]; with test item 3.1 μM", "value": "−7.4"},
      {"measurement": "L-glutamate CRC HillSlope", "setting": "[4]; with test item 12.5 μM", "value": 1.1},
      {"measurement": "L-glutamate CRC LogEC50", "setting": "[4]; with test item 12.5 μM", "value": "−7.1"},
      {"measurement": "L-glutamate CRC LogEC50", "setting": "[4]; with test item 50 μM", "value": "−6.9"},
      {"measurement": "CCL2 gene expression in liver (qRT-PCR)", "setting": "[5]", "value": "didn't affect significantly this increase"},
      {"measurement": "GPAT4 gene expression in liver (qRT-PCR)", "setting": "[5]", "value": "significant drop of their expression"},
      {"measurement": "IL-6 gene expression in liver (qRT-PCR)", "setting": "[5]", "value": "able to counteract this effect"},
      {"measurement": "IL-10 gene expression in liver (qRT-PCR)", "setting": "[5]", "value": "able to counteract this effect"},
      {"measurement": "SREPB2 gene expression in liver (qRT-PCR)", "setting": "[5]", "value": "significant drop of their expression"},
      {"measurement": "hepatic steatosis, histology", "setting": "[5]", "value": "reduction of steatosis"}
    ]}
  ]
}
